test system: A549; assay: Cytotoxicity of compound against A549 cell line; format: functional, cell-based; details: Homo sapiens

Row | SMILES | IC50 [µM]
1 | C=C/C=C\[C@H](C)[C@H](OC(N)=O)[C@@H](C)[C@H](O)[C@@H](C)C/C(C)=C\[C@H](C)[C@@H](O)[C@@H](C)/C=C\CCc1cccc(Cl)c1 | 0.58
2 | C=C/C=C\[C@H](C)[C@H](OC(N)=O)[C@@H](C)[C@H](O)[C@@H](C)C/C(C)=C\[C@H](C)[C@@H](O)[C@@H](C)/C=C\CCc1cccc(O)c1 | 0.19
3 | C=C/C=C\[C@H](C)[C@H](OC(N)=O)[C@@H](C)[C@H](O)[C@@H](C)C/C(C)=C\[C@H](C)[C@@H](O)[C@@H](C)/C=C\CCc1ccc(C)c(O)c1 | 4
4 | C=C/C=C\[C@H](C)[C@H](OC(N)=O)[C@@H](C)[C@H](O)[C@@H](C)C/C(C)=C\[C@H](C)[C@@H](O)[C@@H](C)/C=C\CCc1sccc1C | 0.79
5 | C=C/C=C\[C@H](C)[C@H](OC(N)=O)[C@@H](C)[C@H](O)[C@@H](C)C/C(C)=C\[C@H](C)[C@@H](O)[C@@H](C)/C=C\CCc1cccc(F)c1 | 0.65
6 | C=C/C=C\[C@H](C)[C@H](OC(N)=O)[C@@H](C)[C@H](O)[C@@H](C)C/C(C)=C\[C@H](C)[C@@H](O)[C@@H](C)/C=C\CCc1ccc(C)c(F)c1 | 4
7 | C=C/C=C\[C@H](C)[C@H](OC(N)=O)[C@@H](C)[C@H](O)[C@@H](C)C/C(C)=C\[C@H](C)[C@@H](O)[C@@H](C)/C=C\CCc1ccsc1 | 4
8 | C=C/C=C\[C@H](C)[C@H](OC(N)=O)[C@@H](C)[C@H](O)[C@@H](C)C/C(C)=C\[C@H](C)[C@@H](O)[C@@H](C)/C=C\CCc1ccc(Oc2ccccc2)cc1 | 10
9 | C=C/C=C\[C@H](C)[C@H](OC(N)=O)[C@@H](C)[C@H](O)[C@@H](C)C/C(C)=C\[C@H](C)[C@@H](O)[C@@H](C)/C=C\CCc1cc(O)cc(O)c1 | 0.31
10 | C=C/C=C\[C@H](C)[C@H](OC(N)=O)[C@@H](C)[C@H](O)[C@@H](C)C/C(C)=C\[C@H](C)[C@@H](O)[C@@H](C)/C=C\CCc1cccc(OC)c1 | 0.6
11 | C=C/C=C\[C@H](C)[C@H](OC(N)=O)[C@@H](C)[C@H](O)[C@@H](C)C/C(C)=C\[C@H](C)[C@@H](O)[C@@H](C)/C=C\CCc1cccc(O)c1C | 0.91
12 | C=C/C=C\[C@H](C)[C@H](OC(N)=O)[C@@H](C)[C@H](O)[C@@H](C)C/C(C)=C\[C@H](C)[C@@H](O)[C@@H](C)/C=C\CCc1ccccc1 | 0.51
13 | C=C/C=C\[C@H](C)[C@H](OC(N)=O)[C@@H](C)[C@H](O)[C@@H](C)C/C(C)=C\[C@H](C)[C@@H](O)[C@@H](C)/C=C\CCc1cc(F)cc(F)c1 | 1

test system: SK-OV-3; assay: Cytotoxicity of compound against SKOV-3 cell line; format: functional, cell-based; details: Homo sapiens

Row | SMILES | IC50 [µM]
14 | C=C/C=C\[C@H](C)[C@H](OC(N)=O)[C@@H](C)[C@H](O)[C@@H](C)C/C(C)=C\[C@H](C)[C@@H](O)[C@@H](C)/C=C\CCc1cccc(Cl)c1 | 0.38
15 | C=C/C=C\[C@H](C)[C@H](OC(N)=O)[C@@H](C)[C@H](O)[C@@H](C)C/C(C)=C\[C@H](C)[C@@H](O)[C@@H](C)/C=C\CCc1cccc(O)c1 | 0.04
16 | C=C/C=C\[C@H](C)[C@H](OC(N)=O)[C@@H](C)[C@H](O)[C@@H](C)C/C(C)=C\[C@H](C)[C@@H](O)[C@@H](C)/C=C\CCc1ccc(C)c(O)c1 | 0.41
17 | C=C/C=C\[C@H](C)[C@H](OC(N)=O)[C@@H](C)[C@H](O)[C@@H](C)C/C(C)=C\[C@H](C)[C@@H](O)[C@@H](C)/C=C\CCc1sccc1C | 0.37
18 | C=C/C=C\[C@H](C)[C@H](OC(N)=O)[C@@H](C)[C@H](O)[C@@H](C)C/C(C)=C\[C@H](C)[C@@H](O)[C@@H](C)/C=C\CCc1cccc(F)c1 | 0.4
19 | C=C/C=C\[C@H](C)[C@H](OC(N)=O)[C@@H](C)[C@H](O)[C@@H](C)C/C(C)=C\[C@H](C)[C@@H](O)[C@@H](C)/C=C\CCc1ccc(C)c(F)c1 | 1
20 | C=C/C=C\[C@H](C)[C@H](OC(N)=O)[C@@H](C)[C@H](O)[C@@H](C)C/C(C)=C\[C@H](C)[C@@H](O)[C@@H](C)/C=C\CCc1ccsc1 | 0.44
21 | C=C/C=C\[C@H](C)[C@H](OC(N)=O)[C@@H](C)[C@H](O)[C@@H](C)C/C(C)=C\[C@H](C)[C@@H](O)[C@@H](C)/C=C\CCc1ccc(Oc2ccccc2)cc1 | 10
22 | C=C/C=C\[C@H](C)[C@H](OC(N)=O)[C@@H](C)[C@H](O)[C@@H](C)C/C(C)=C\[C@H](C)[C@@H](O)[C@@H](C)/C=C\CCc1cc(O)cc(O)c1 | 0.04
23 | C=C/C=C\[C@H](C)[C@H](OC(N)=O)[C@@H](C)[C@H](O)[C@@H](C)C/C(C)=C\[C@H](C)[C@@H](O)[C@@H](C)/C=C\CCc1cccc(OC)c1 | 0.37
24 | C=C/C=C\[C@H](C)[C@H](OC(N)=O)[C@@H](C)[C@H](O)[C@@H](C)C/C(C)=C\[C@H](C)[C@@H](O)[C@@H](C)/C=C\CCc1cccc(O)c1C | 0.27
25 | C=C/C=C\[C@H](C)[C@H](OC(N)=O)[C@@H](C)[C@H](O)[C@@H](C)C/C(C)=C\[C@H](C)[C@@H](O)[C@@H](C)/C=C\CCc1ccccc1 | 0.35
26 | C=C/C=C\[C@H](C)[C@H](OC(N)=O)[C@@H](C)[C@H](O)[C@@H](C)C/C(C)=C\[C@H](C)[C@@H](O)[C@@H](C)/C=C\CCc1cc(F)cc(F)c1 | 0.36

test system: MCF7; assay: Cytotoxicity of compound against MCF-7 cell line; format: functional, cell-based; details: Homo sapiens

Row | SMILES | IC50 [µM]
27 | C=C/C=C\[C@H](C)[C@H](OC(N)=O)[C@@H](C)[C@H](O)[C@@H](C)C/C(C)=C\[C@H](C)[C@@H](O)[C@@H](C)/C=C\CCc1cccc(Cl)c1 | 0.4
28 | C=C/C=C\[C@H](C)[C@H](OC(N)=O)[C@@H](C)[C@H](O)[C@@H](C)C/C(C)=C\[C@H](C)[C@@H](O)[C@@H](C)/C=C\CCc1cccc(O)c1 | 0.13
29 | C=C/C=C\[C@H](C)[C@H](OC(N)=O)[C@@H](C)[C@H](O)[C@@H](C)C/C(C)=C\[C@H](C)[C@@H](O)[C@@H](C)/C=C\CCc1ccc(C)c(O)c1 | 0.77
30 | C=C/C=C\[C@H](C)[C@H](OC(N)=O)[C@@H](C)[C@H](O)[C@@H](C)C/C(C)=C\[C@H](C)[C@@H](O)[C@@H](C)/C=C\CCc1sccc1C | 0.37
31 | C=C/C=C\[C@H](C)[C@H](OC(N)=O)[C@@H](C)[C@H](O)[C@@H](C)C/C(C)=C\[C@H](C)[C@@H](O)[C@@H](C)/C=C\CCc1cccc(F)c1 | 0.37
32 | C=C/C=C\[C@H](C)[C@H](OC(N)=O)[C@@H](C)[C@H](O)[C@@H](C)C/C(C)=C\[C@H](C)[C@@H](O)[C@@H](C)/C=C\CCc1ccc(C)c(F)c1 | 1
33 | C=C/C=C\[C@H](C)[C@H](OC(N)=O)[C@@H](C)[C@H](O)[C@@H](C)C/C(C)=C\[C@H](C)[C@@H](O)[C@@H](C)/C=C\CCc1ccsc1 | 0.85
34 | C=C/C=C\[C@H](C)[C@H](OC(N)=O)[C@@H](C)[C@H](O)[C@@H](C)C/C(C)=C\[C@H](C)[C@@H](O)[C@@H](C)/C=C\CCc1ccc(Oc2ccccc2)cc1 | 4
35 | C=C/C=C\[C@H](C)[C@H](OC(N)=O)[C@@H](C)[C@H](O)[C@@H](C)C/C(C)=C\[C@H](C)[C@@H](O)[C@@H](C)/C=C\CCc1cc(O)cc(O)c1 | 0.16
36 | C=C/C=C\[C@H](C)[C@H](OC(N)=O)[C@@H](C)[C@H](O)[C@@H](C)C/C(C)=C\[C@H](C)[C@@H](O)[C@@H](C)/C=C\CCc1cccc(OC)c1 | 0.33
37 | C=C/C=C\[C@H](C)[C@H](OC(N)=O)[C@@H](C)[C@H](O)[C@@H](C)C/C(C)=C\[C@H](C)[C@@H](O)[C@@H](C)/C=C\CCc1cccc(O)c1C | 0.49
38 | C=C/C=C\[C@H](C)[C@H](OC(N)=O)[C@@H](C)[C@H](O)[C@@H](C)C/C(C)=C\[C@H](C)[C@@H](O)[C@@H](C)/C=C\CCc1ccccc1 | 0.48
39 | C=C/C=C\[C@H](C)[C@H](OC(N)=O)[C@@H](C)[C@H](O)[C@@H](C)C/C(C)=C\[C@H](C)[C@@H](O)[C@@H](C)/C=C\CCc1cc(F)cc(F)c1 | 0.6

test system: MCF7; assay: Cytotoxicity of compound against MCF-7/ADR cell line; format: functional, cell-based; details: Homo sapiens

Row | SMILES | IC50 [µM]
40 | C=C/C=C\[C@H](C)[C@H](OC(N)=O)[C@@H](C)[C@H](O)[C@@H](C)C/C(C)=C\[C@H](C)[C@@H](O)[C@@H](C)/C=C\CCc1cccc(Cl)c1 | 0.65
41 | C=C/C=C\[C@H](C)[C@H](OC(N)=O)[C@@H](C)[C@H](O)[C@@H](C)C/C(C)=C\[C@H](C)[C@@H](O)[C@@H](C)/C=C\CCc1cccc(O)c1 | 0.39
42 | C=C/C=C\[C@H](C)[C@H](OC(N)=O)[C@@H](C)[C@H](O)[C@@H](C)C/C(C)=C\[C@H](C)[C@@H](O)[C@@H](C)/C=C\CCc1ccc(C)c(O)c1 | 4
43 | C=C/C=C\[C@H](C)[C@H](OC(N)=O)[C@@H](C)[C@H](O)[C@@H](C)C/C(C)=C\[C@H](C)[C@@H](O)[C@@H](C)/C=C\CCc1sccc1C | 0.62
44 | C=C/C=C\[C@H](C)[C@H](OC(N)=O)[C@@H](C)[C@H](O)[C@@H](C)C/C(C)=C\[C@H](C)[C@@H](O)[C@@H](C)/C=C\CCc1cccc(F)c1 | 0.5
45 | C=C/C=C\[C@H](C)[C@H](OC(N)=O)[C@@H](C)[C@H](O)[C@@H](C)C/C(C)=C\[C@H](C)[C@@H](O)[C@@H](C)/C=C\CCc1ccc(C)c(F)c1 | 4
46 | C=C/C=C\[C@H](C)[C@H](OC(N)=O)[C@@H](C)[C@H](O)[C@@H](C)C/C(C)=C\[C@H](C)[C@@H](O)[C@@H](C)/C=C\CCc1ccsc1 | 4
47 | C=C/C=C\[C@H](C)[C@H](OC(N)=O)[C@@H](C)[C@H](O)[C@@H](C)C/C(C)=C\[C@H](C)[C@@H](O)[C@@H](C)/C=C\CCc1ccc(Oc2ccccc2)cc1 | 10
48 | C=C/C=C\[C@H](C)[C@H](OC(N)=O)[C@@H](C)[C@H](O)[C@@H](C)C/C(C)=C\[C@H](C)[C@@H](O)[C@@H](C)/C=C\CCc1cc(O)cc(O)c1 | > 1
49 | C=C/C=C\[C@H](C)[C@H](OC(N)=O)[C@@H](C)[C@H](O)[C@@H](C)C/C(C)=C\[C@H](C)[C@@H](O)[C@@H](C)/C=C\CCc1cccc(OC)c1 | 0.5
50 | C=C/C=C\[C@H](C)[C@H](OC(N)=O)[C@@H](C)[C@H](O)[C@@H](C)C/C(C)=C\[C@H](C)[C@@H](O)[C@@H](C)/C=C\CCc1cccc(O)c1C | 1
51 | C=C/C=C\[C@H](C)[C@H](OC(N)=O)[C@@H](C)[C@H](O)[C@@H](C)C/C(C)=C\[C@H](C)[C@@H](O)[C@@H](C)/C=C\CCc1ccccc1 | 0.56
52 | C=C/C=C\[C@H](C)[C@H](OC(N)=O)[C@@H](C)[C@H](O)[C@@H](C)C/C(C)=C\[C@H](C)[C@@H](O)[C@@H](C)/C=C\CCc1cc(F)cc(F)c1 | 2

Source: ChEMBL document CHEMBL1148238, “Design, synthesis and cytotoxicity of 7-deoxy aryl discodermolide analogues” (Bioorg Med Chem Lett, 2004)
